Assay results from US5122381A, “Composition and process for dissolving a sparingly water-soluble flavonoid” (San-Ei Chemical Industries, Ltd., priority 1989, dated 1992).

Assays:
[1] = Dissolution of Rutin: precipitation observed on standing with Glycoside I; type: physicochemical; design: key: ++: indicating the greatest degree of precipitation; +: precipitation was observed; -: indicating no observed precipitation; details: 0.04 wt % rutin
Protocol: (§1) Water (100 ml) containing 12 W/V% of granulated sugar and 0.3 W/V% of citric acid was poured into each of five test tubes (100 ml) No. 1 to 5, to which 0.4 ml of rutin (10 W/V%) solution in ethanol (equivalent to 0.04 g of rutin) was added. Immediately thereafter, mixed was a solution of the Glycoside I (13.4 W/V%) in ethanol in amounts of 0.024 ml, 0.032 ml, 0.04 ml and 0.05 ml respectively to the test tubes No. 2 to 5. These amounts were equivalent to 8.0 wt. %, 10.8 wt. %, 13.5 wt. % and 16.0 wt. %, respectively relative to the amount of rutin.
(§2) All of these mixtures including No. 1 to which the Glycoside I had not been added were transparent when observed immediately after mixing. After standing for 24 hours, some mixtures were recognized to have precipitation. Standing was continued for 14 days at room temperature in observing precipitation states of the mixtures. On completion of this standing, rutin concentration of each supernatant liquid of the mixtures was measured using high-speed liquid chromatography.
The "+" and "-" signs in Table 1 denote comparative amounts of precipitation of the rutin. The range extends from "++", indicating the greatest degree of precipitation, down to "-", indicating no observed precipitation.

[2] = Dissolution of Rutin: rutin remaining in solution (supernatant, high-speed liquid chromatography); type: physicochemical; details: 13.5 wt. % of Glycoside I relative to rutin; standing 14 days at room temperature
Protocol: as §1, §2

C[C@@H]1O[C@@H](OC[C@H]2O[C@@H](Oc3c(-c4ccc(O)c(O)c4)oc4cc(O)cc(O)c4c3=O)[C@H](O)[C@@H](O)[C@@H]2O)[C@H](O)[C@H](O)[C@H]1O [Rutin]
+: Precipitation Observed ([1]; No. 2, Glycoside I 8.0 wt % relative to rutin, 1st day) | Precipitation Observed ([1]; No. 2, Glycoside I 8.0 wt % relative to rutin, 3rd day) | Precipitation Observed ([1]; No. 2, Glycoside I 8.0 wt % relative to rutin, 6th day) | Precipitation Observed ([1]; No. 2, Glycoside I 8.0 wt % relative to rutin, 14th day)
+ +: Precipitation Observed ([1]; No. 1, Glycoside I 0 wt % relative to rutin, 1st day) | Precipitation Observed ([1]; No. 1, Glycoside I 0 wt % relative to rutin, 3rd day) | Precipitation Observed ([1]; No. 1, Glycoside I 0 wt % relative to rutin, 6th day) | Precipitation Observed ([1]; No. 1, Glycoside I 0 wt % relative to rutin, 14th day)
at least 0.04 wt. %: rutin stably dissolved in water [2]
